Reference: patent US20210330616A1, “AMELIORATING AGENT FOR OBESITY-RELATED METABOLIC DISEASE” (METABOLIC AND OBESE RESEARCH SCIENCE CORPORATION, priority 2018, published 2021)
Several values for one entry are separate records, joined by “and”; a condition that tells them apart may be missing. Identical values can stand only once. Counter-ions that a name gives are not always drawn. Like-named read-outs stand apart in the source and are kept apart here.

Assays:
[1] = design: key to Body weight / Insulin resistance / Hyperglycemia / Hypertension / Blood LDLc / Blood HDLc / Fatty liver: ↓: lowering or mitigating action; ↑: increasing action; →: no change; conditions: cited from earlier work
[2] = molecular target: T1, Helz2 (Homo sapiens, UniProt Q9BYK8); test: High-throughput screening through surface plasmon resonance for low-molecular-weight compounds that bind to Helz2; format: binding; conditions: purified Helz2 protein
T1 construct: 3xFLAG (N); made in house; host or cells: HEK293 cells
T1 sequence (Q9BYK8 whole entry): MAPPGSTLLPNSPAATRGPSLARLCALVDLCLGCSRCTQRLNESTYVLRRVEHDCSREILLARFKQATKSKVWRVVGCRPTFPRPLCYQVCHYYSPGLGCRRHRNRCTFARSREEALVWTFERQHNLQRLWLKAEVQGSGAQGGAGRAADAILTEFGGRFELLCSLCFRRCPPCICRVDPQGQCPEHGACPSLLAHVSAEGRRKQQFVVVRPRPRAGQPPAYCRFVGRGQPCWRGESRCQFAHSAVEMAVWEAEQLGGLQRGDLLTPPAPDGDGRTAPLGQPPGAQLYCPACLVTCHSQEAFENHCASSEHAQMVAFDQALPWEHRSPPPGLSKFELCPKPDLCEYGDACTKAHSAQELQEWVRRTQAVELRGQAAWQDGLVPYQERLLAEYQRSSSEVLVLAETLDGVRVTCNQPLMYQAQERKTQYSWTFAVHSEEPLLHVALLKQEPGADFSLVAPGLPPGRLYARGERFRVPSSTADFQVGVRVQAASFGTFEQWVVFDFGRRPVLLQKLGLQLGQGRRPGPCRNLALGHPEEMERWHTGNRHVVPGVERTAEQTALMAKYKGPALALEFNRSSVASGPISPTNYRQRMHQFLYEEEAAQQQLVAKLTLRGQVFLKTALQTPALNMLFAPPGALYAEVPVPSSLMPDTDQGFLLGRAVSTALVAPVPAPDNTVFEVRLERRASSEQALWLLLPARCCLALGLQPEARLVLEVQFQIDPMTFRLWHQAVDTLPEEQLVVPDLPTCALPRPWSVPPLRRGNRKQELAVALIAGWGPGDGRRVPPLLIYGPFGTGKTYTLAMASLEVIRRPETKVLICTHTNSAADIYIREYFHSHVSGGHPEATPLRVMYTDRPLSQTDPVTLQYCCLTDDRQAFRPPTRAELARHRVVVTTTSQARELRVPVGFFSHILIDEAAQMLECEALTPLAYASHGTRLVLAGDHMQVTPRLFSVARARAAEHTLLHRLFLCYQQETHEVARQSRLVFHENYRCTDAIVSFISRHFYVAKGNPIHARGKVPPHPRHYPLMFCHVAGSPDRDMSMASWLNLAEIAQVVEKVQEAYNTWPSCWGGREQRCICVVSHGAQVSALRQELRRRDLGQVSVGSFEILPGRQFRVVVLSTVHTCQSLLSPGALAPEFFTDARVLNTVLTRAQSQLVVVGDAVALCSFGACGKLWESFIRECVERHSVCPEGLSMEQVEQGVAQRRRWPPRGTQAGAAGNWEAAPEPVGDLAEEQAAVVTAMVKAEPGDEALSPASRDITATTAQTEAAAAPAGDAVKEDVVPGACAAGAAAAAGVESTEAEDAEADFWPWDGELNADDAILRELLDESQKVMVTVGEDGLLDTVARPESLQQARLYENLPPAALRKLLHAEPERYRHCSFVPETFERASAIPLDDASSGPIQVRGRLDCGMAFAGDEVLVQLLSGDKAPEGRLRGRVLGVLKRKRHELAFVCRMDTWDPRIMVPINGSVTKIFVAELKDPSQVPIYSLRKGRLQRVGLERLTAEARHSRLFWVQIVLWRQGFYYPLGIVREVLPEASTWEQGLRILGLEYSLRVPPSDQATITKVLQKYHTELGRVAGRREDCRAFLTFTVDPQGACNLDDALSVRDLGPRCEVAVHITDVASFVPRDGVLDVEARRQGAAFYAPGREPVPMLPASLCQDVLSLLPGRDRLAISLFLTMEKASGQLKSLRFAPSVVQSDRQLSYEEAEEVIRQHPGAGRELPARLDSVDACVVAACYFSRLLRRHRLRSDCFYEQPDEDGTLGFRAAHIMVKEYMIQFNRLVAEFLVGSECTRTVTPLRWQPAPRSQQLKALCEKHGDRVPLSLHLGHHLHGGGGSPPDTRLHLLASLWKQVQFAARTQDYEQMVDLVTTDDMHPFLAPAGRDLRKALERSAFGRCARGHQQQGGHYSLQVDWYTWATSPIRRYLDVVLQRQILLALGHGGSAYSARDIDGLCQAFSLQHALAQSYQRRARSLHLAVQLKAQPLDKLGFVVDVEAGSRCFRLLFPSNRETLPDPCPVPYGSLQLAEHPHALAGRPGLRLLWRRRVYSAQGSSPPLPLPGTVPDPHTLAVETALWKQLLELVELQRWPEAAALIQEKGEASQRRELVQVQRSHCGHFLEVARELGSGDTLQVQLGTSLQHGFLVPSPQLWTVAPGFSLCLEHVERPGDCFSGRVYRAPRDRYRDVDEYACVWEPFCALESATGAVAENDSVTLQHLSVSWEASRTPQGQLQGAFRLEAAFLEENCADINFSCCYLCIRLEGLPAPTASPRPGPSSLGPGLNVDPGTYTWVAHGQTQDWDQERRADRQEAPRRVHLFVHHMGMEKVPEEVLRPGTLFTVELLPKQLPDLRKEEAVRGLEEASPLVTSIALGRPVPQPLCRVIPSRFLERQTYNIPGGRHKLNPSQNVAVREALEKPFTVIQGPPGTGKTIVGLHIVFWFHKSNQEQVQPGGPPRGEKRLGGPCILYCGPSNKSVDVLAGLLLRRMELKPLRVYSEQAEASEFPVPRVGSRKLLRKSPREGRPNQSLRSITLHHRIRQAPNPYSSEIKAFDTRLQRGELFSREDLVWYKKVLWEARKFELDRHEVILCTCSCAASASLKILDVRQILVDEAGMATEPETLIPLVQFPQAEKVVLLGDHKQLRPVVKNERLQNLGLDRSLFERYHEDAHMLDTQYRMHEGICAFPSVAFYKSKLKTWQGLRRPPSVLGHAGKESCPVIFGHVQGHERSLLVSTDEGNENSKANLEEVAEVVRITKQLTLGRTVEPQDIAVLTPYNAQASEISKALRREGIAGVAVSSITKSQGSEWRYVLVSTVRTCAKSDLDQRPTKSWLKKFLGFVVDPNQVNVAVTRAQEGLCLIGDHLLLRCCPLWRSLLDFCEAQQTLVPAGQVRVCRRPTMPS
Excerpt: 1. High-Throughput Screening for Low-Molecular-Weight Compounds that Bind to Helz2
HEK293 cells were allowed to express Helz2 by using a Helz2 expression vector (p3×FLAG-CMV10-pDIP2), and Helz2 protein was purified.

[3] = test system: obese mice fed high-fat diet; test: Blood leptin concentration and food intake after oral administration to obese mice; format: in vivo, mice (C57BL6J)
Protocol: (§1) Six-week-old male mice (C57BL6J) were grown with high-fat diet (fat content: 60 kcal %, Research diets, Inc.) or low-fat diet (fat content: 10.5 kcal %, CLEA Japan, Inc.) for 18 weeks. Thereafter, obese mice fed high-fat diet were separated into two groups, and 0.3 mL of physiological saline was orally administered to one group through a gastric tube for mouse, and 0.3 mL of a solution of a low-molecular-weight compound dissolved in physiological saline was orally administered to the other group through the gastric tube for mouse. Oral administration was performed every day over 14 days during 30 minutes before turning lights off at 18:00 (turning lights on at 6:00, 12-hour light-dark cycle, room temperature: 22° C.). […] Thereafter, the organs were stored at −80° C. Hepatic Leprb expression was measured by means of the qRT-PCR.
5. Change in Blood Leptin Concentration and Food Intake after Oral Administration of Low-Molecular-Weight Compound
Blood leptin concentration after administration of physiological saline or administration of a low-molecular-weight compound were measured by using a mouse leptin ELISA kit (Morinaga Institute of Biological Science, Inc.). The daily food intake of each mouse was measured every day before each administration at 18:00.

[4] = test system: obese mice fed high-fat diet; test: Weights of liver and heart after oral administration to obese mice; format: in vivo, mice (C57BL6J); conditions: 14-day oral administration, vs physiological saline
Protocol: as §1
9. Change in Weights of Liver and Heart after Oral Administration of Low-Molecular-Weight Compound
The weights of the liver and heart after administration of physiological saline or administration of a low-molecular-weight compound were measured.

[5] = test system: obese mice fed high-fat diet; test: Weights of spleen and kidney after oral administration to obese mice; format: in vivo, mice (C57BL6J); conditions: 14-day oral administration, vs physiological saline
Protocol: as §1
11. Change in Weights of Spleen and Kidney after Oral Administration of Low-Molecular-Weight Compound
The weights of the spleen and kidney after administration of physiological saline or administration of a low-molecular-weight compound were measured.

[6] = test system: obese mice fed high-fat diet; test: Blood lipid concentration after oral administration to obese mice; format: in vivo, mice (C57BL6J); design: key to Blood LDLc / Blood HDLc: ↓: lowering or mitigating action; ↑: increasing action; →: no change
Protocol: as §1
10. Change in Blood Lipid Concentration after Oral Administration of Low-Molecular-Weight Compound
Fasting blood CM-Tg, VLDL-Tg, LDLc, and HDLc concentrations after administration of physiological saline or administration of a low-molecular-weight compound were measured by using the LipoSEARCH method.

[7] = test system: Hepatic Leprb expression; test: Hepatic Leprb expression with oral administration to obese mice; format: in vivo, mice (C57BL6J); conditions: 0.32 mg/kg/day oral, 14 days, vs physiological saline
Protocol: 3. Hepatic Leprb Expression with Oral Administration of Low-Molecular-Weight Compound
as §1

[8] = test system: obese mice fed high-fat diet; test: Pancreatic weight and pancreatic β-cell function after oral administration to obese mice; format: in vivo, mice (C57BL6J); conditions: 14-day oral administration, vs physiological saline
Protocol: as §1
7. Change in Pancreatic Weight and Pancreatic β-Cell Function after Oral Administration of Low-Molecular-Weight Compound
Pancreatic weight after administration of physiological saline or administration of a low-molecular-weight compound was measured. The pancreatic β-cell function of each mouse was represented by Homeostatic model assessment-β cell function (HOMA-β) {[insulin (mU/L)×20]÷[blood glucose (mM)−3.5]} index (×100) (Brit J Nutr 101:701-708, 2009).

[9] = test system: Leprb gene expression in HepG2 cells; test: Leprb gene expression in cultured hepatocyte HepG2 (qRT-PCR); format: cell-based; conditions: HepG2, 10^−9 to 10^−7M, 24 to 48 hours
Protocol: Identification of Low-Molecular-Weight Compound that Promotes Leprb Expression in Cultured Hepatocytes
Because Leprb gene expression is promoted on lowering of the action of Helz2 through binding of a low-molecular-weight compound, the low-molecular-weight compounds that bound to Helz2 were screened with use of increase of Leprb gene expression in cultured hepatocyte as an index. […] The hepatocytes were cultured at 37° C. for 24 to 48 hours, and Leprb gene expression therein was measured through a quantitative real time polymerase chain reaction (qRT-PCR, TaqMan Gene expression assays using LEPRB probes) method.

[10] = test system: obese mice fed high-fat diet; test: Daily variation of body weight with oral administration to obese mice; format: in vivo, mice (C57BL6J); design: key to Body weight: ↓: lowering or mitigating action; ↑: increasing action; →: no change
Protocol: as §1
4. Daily Variation of Body Weight with Oral Administration of Low-Molecular-Weight Compound
The body weight of each mouse with administration of physiological saline or administration of a low-molecular-weight compound was measured every day before each administration at 18:00.

[11] = test system: obese mice fed high-fat diet; test: Weights of fat and muscle after oral administration to obese mice; format: in vivo, mice (C57BL6J); conditions: 14-day oral administration
Protocol: as §1
12. Change in Weights of Fat and Muscle after Oral Administration of Low-Molecular-Weight Compound
The amounts of visceral fat, which evokes metabolic disorder, and muscle (right side) after administration of physiological saline or administration of a low-molecular-weight compound were measured.

[12] = test system: obese mice fed high-fat diet; test: Hepatic lipid content after oral administration to obese mice (LipoSEARCH, BODIPY staining); format: in vivo, mice (C57BL6J); design: key to Fatty liver: ↓: lowering or mitigating action; ↑: increasing action; →: no change
Protocol: as §1
8. Change in Hepatic Lipid Content after Oral Administration of Low-Molecular-Weight Compound
Hepatic Tg and Chol contents after administration of physiological saline or administration of a low-molecular-weight compound were measured by using a LipoSEARCH method (Skylight Biotech, Inc.).
To visualize and quantify the amount of fat accumulated in hepatocyte per cell and change in shape of fat, fat globule fluorescent staining with BODIPY (excitation light: 493 nm; fluorescence: 503 nm) was performed. Staining-positive area and size of staining-positive cell were measured in 10 views per mouse hepatocyte in each group. ANOVA was used for intergroup significance test in FIGS. 8-D and 8-E (****. P<0.001).

[13] = test system: obese mice fed high-fat diet; test: Insulin resistance and blood glucose level after oral administration to obese mice; format: in vivo, mice (C57BL6J); design: key to Insulin resistance / Hyperglycemia: ↓: lowering or mitigating action; ↑: increasing action; →: no change
Protocol: as §1
6. Change in Insulin Resistance and Blood Glucose Level after Oral Administration of Low-Molecular-Weight Compound
Fasting blood glucose and blood insulin concentration after administration of physiological saline or administration of a low-molecular-weight compound were measured respectively by using an enzyme-electrode method with glucose oxidase and a mouse insulin ELISA kit (Morinaga Institute of Biological Science, Inc.). The insulin resistance of each mouse was represented as Homeostatic model assessment of insulin resistance (HOMA-IR) [insulin (mU/L)×blood glucose (mM)÷22.5] index (×100) (Brit J Nutr 101: 701-708, 2009).

[14] = in vivo; cited from earlier work
[15] = molecular target: α2-adrenaline receptor; conditions: cited from earlier work
[16] = surface plasmon resonance, read-out: KD value for binding to and dissociating from Helz2
[17] = obese mice, 14-day oral administration, vs physiological saline
[18] = obese mice, 14-day oral administration, fasting, vs physiological saline
[19] = obese mice, fatty liver caused by high-fat diet
[20] = Table 1, summary of obese mouse results
[21] = KD value for binding to and dissociating from Helz2, surface plasmon resonance

Compound: CN(C)C(=N)N=C(N)N [Metformin]
- Blood HDLc ([1]; Table 1, comparator drugs): →
- Blood LDLc ([1]; Table 1, comparator drugs): →
- Body weight ([1]; Table 1, comparator drugs): →
- Fatty liver ([1]; Table 1, comparator drugs): →
- Hyperglycemia ([1]; Table 1, comparator drugs): ↓
- Hypertension ([1]; Table 1, comparator drugs): →
- Insulin resistance ([1]; Table 1, comparator drugs): ↓
- action on insulin resistance ([1]; comparison, comparator drugs): ameliorate insulin resistance
- anti-fatty liver action ([1]; comparison, comparator drugs): does not exhibit anti-fatty liver action
- anti-obesity action ([1]; comparison, comparator drugs): does not exhibit anti-obesity action
- hyperglycemia-mitigating action ([1]; comparison, comparator drugs): exhibits hyperglycemia-mitigating action

Compound: NCCCNCCSP(=O)(O)O [amifostine trihydrate]
- Kd [2, 16]: 1 to 490 nM

Compound: CN(C)CCC(c1ccc(Br)cc1)c1ccccn1 (centres unmarked) [brompheniramine maleate]
- Kd [2, 16]: 1 to 490 nM

Compound: Clc1cccc(Cl)c1N=C1NCCN1 [clonidine hydrochloride]
- Kd [2, 16]: ≥ 1000 nM

Compound: COC(=O)Nc1nc2ccc(Sc3ccccc3)cc2[nH]1 [fenbendazole]
- Kd [2, 16]: 1 to 490 nM

Compound: N=C(N)N/N=C/c1c(Cl)cccc1Cl [guanabenz acetate]
- blood leptin concentration relative to non-obese mice ([3]; obese mice after administration, vs non-obese mice (2.3±0.5 ng/mL)): ≥ 10 fold
- blood leptin concentration [3, 17]: rather slightly decreased
- total food intake accumulation [3, 17]: no significant change
- daily food intake ([3]; obese mice, except on day 3 from the beginning of administration, vs physiological saline): no change in daily food intake
- weight of heart [4]: significantly decreased
- weight of liver [4]: significantly decreased
- weight of kidney [5]: No change
- weight of spleen [5]: No change
- blood CM-Tg concentration [6, 18]: not changed
- blood HDLc concentration [6, 18]: not changed
- blood LDLc concentration [6, 18]: significantly decreased
- blood VLDL-Tg concentration [6, 18]: not changed
- Hepatic Leprb gene expression [7]: significantly increased
- HOMA-β index (pancreatic β-cell function) [8]: not changed
- pancreatic weight [8]: not changed
- Leprb expression in cultured hepatocyte (index of lowering of Helz2 action) [9]: Concentration-dependent increase in Leprb expression
- body weight gain ([10]; obese mice, 0.32 mg/kg/day oral, after day 4 from the beginning of administration, vs physiological saline): significantly reduced
- Body weight ([10]; obese mice, 0.32 mg/kg/day oral, on day 8 from the beginning of administration, maintained during administration): significant body weight reduction
- Kd [2, 16]: 1 to 490 nM and 2.3 nM
- muscle weight of gastrocnemius muscle [11]: not affected
- muscle weight of plantaris muscle [11]: not affected
- muscle weight of soleus muscle [11]: not affected
- amount of intestinal membrane fat ([11]; vs physiological saline): not changed
- amount of peritesticular fat ([11]; vs physiological saline): not changed
- amount of total visceral fat ([11]; vs physiological saline): not changed
- hepatic Chol content [12, 17]: significantly reduced
- hepatic Tg content [12, 17]: significantly reduced
- fat globule area (BODIPY staining-positive area in hepatocyte) [12, 19]: significantly decreased
- fat globule cell size (size of BODIPY staining-positive cell) [12, 19]: significantly decreased
- blood glucose levels [13, 18]: lowered the level of hyperglycemia to that in non-obese mice
- blood insulin levels [13, 18]: mitigated hyperinsulinemia
- HOMA-IR index (insulin resistance index) [13, 17]: suppressed the HOMA-IR index

Compound: NC(N)=N/N=C/c1c(Cl)cccc1Cl [guanabenz, 2-{[(2,6-dichlorophenyl)methylidene]amino}guanidine]
- Blood HDLc [6, 20]: →
- Blood LDLc [6, 20]: ↓
- action on high LDL cholesterol ([6]; obese mouse results): exhibits reducing action for high LDL cholesterol
- Hypertension ([1]; Table 1, *based on clinical data): ↓*
- Body weight [10, 20]: ↓
- anti-obesity action ([10]; obese mouse results): exhibits anti-obesity action without reduction of appetite
- absorptivity from a gastrointestinal tract [14]: approximately 75%
- half-life in blood [14]: 4.3 to 6.4 h
- site of metabolism [14]: mostly metabolized in the liver
- Fatty liver [12, 20]: ↓
- anti-fatty liver action ([12]; obese mouse results): with anti-fatty liver action
- Ki [15]: 7 nM
- Hyperglycemia [13, 20]: ↓
- Insulin resistance [13, 20]: ↓
- action on insulin resistance ([13]; obese mouse results): ameliorates insulin resistance
- hyperglycemia-mitigating action ([13]; obese mouse results): exhibits hyperglycemia-mitigating action

Compound: CN(C)C(=O)C(CCN1CCC(O)(c2ccc(Cl)cc2)CC1)(c1ccccc1)c1ccccc1 [loperamide hydrochloride]
- Kd [2, 21]: 1 to 490 nM

Compound: Cc1nc2ccccn2c(=O)c1CCN1CCC(C(=O)c2ccc(F)cc2)CC1 [pirenperone]
- Kd [2, 16]: 1 to 490 nM

Compound: CC(NCCc1ccc(O)cc1)C(O)c1ccc(O)cc1 (centres unmarked) [ritodrine hydrochloride]
- Kd [2, 16]: 1 to 490 nM

Compound: CCN(C)C(=O)Oc1cccc([C@H](C)N(C)C)c1 [rivastigmine tartrate]
- Kd [2, 21]: 1 to 490 nM

Compound: CC(C)(C)NCC(O)c1ccc(O)c(CO)c1 (centres unmarked) [salbutamol]
- Kd [2, 16]: 1 to 490 nM and 220 nM

Compound: CC(C)CC(N(C)C)C1(c2ccc(Cl)cc2)CCC1 (centres unmarked) [sibutramine hydrochloride]
- Kd [2, 21]: 1 to 490 nM

Compound: CC1(C)[C@H](C(=O)O)N2C(=O)C[C@H]2S1(=O)=O [sulbactam]
- Kd [2, 16]: 1 to 490 nM

Compound: C[C@@H](c1ncncc1F)[C@](O)(Cn1cncn1)c1ccc(F)cc1F [voriconazole]
- Kd [2, 16]: 1 to 490 nM
